Measurements reported in patent publication US20180186814A1, “TRICYCLIC COMPOUND HAVING SULFINYL OR SULFONYL” (Shionogi & Co., Ltd., priority 2015, published 2018).
In brackets after ≈: the same amount, converted by molar mass.

What was measured:
Type in all cases: cell-based
E. coli SR09616 = assay: MIC by microbroth dilution (CLSI), strain No. 7; details: for MIC: Escherichia coli, SR09616, read-out: minimum inhibitory concentration (MIC), Strain No. 7; for minimum inhibitory concentration (MIC), Strain No. 7: E. coli SR09616, CMY-2 type, plasmid AmpC-producing strain, ceftazidime-resistant, cefepime-sensitive, cation-adjusted Mueller-Hinton broth
Procedure: (§1) The minimum inhibitory concentration (MIC) was measured by the microbroth dilution method in accordance with the procedures recommended by CLSI (Clinical and Laboratory Standards Institute) using 1×10^5 CFU/mL as an inoculum dose and a cation-adjusted Mueller-Hinton broth as a test medium.
(§2) The strains used are as described in the table below.

K. pneumoniae SR01453 = assay: MIC by microbroth dilution (CLSI), strain No. 3; details: K. pneumoniae SR01453, NDM-1, MBL-producing strain, carbapenem-resistant, cation-adjusted Mueller-Hinton broth; for MIC: Klebsiella pneumoniae, read-out: minimum inhibitory concentration (MIC), Strain No. 3
Procedure: as §1, §2

E. coli SR09613 = assay: MIC by microbroth dilution (CLSI), strain No. 6; details: for MIC: Escherichia coli, SR09613, read-out: minimum inhibitory concentration (MIC), Strain No. 6; for minimum inhibitory concentration (MIC), Strain No. 6: E. coli SR09613, CMY-2 type, plasmid AmpC-producing strain, ceftazidime-resistant, cefepime-sensitive, cation-adjusted Mueller-Hinton broth
Procedure: as §1, §2

K. pneumoniae NCTC13443 = assay: MIC by microbroth dilution (CLSI), strain No. 4; details: K. pneumoniae NCTC13443, NDM-1, MBL-producing strain, carbapenem-resistant, cation-adjusted Mueller-Hinton broth; for MIC: Klebsiella pneumoniae, read-out: minimum inhibitory concentration (MIC), Strain No. 4
Procedure: as §1, §2

E. cloacae ATCC13047 = assay: MIC by microbroth dilution (CLSI), strain No. 1; details: E. cloacae ATCC13047, AmpC, ceftazidime-resistant, cefepime-sensitive, cation-adjusted Mueller-Hinton broth; for MIC: Enterobacter cloacae, read-out: minimum inhibitory concentration (MIC), Strain No. 1
Procedure: as §1, §2

E. cloacae SR36276 = assay: MIC by microbroth dilution (CLSI), strain No. 5; details: E. cloacae SR36276, AmpC, highly AmpC-producing strain, ceftazidime-resistant, cefepime-sensitive, cation-adjusted Mueller-Hinton broth; for MIC: Enterobacter cloacae, read-out: minimum inhibitory concentration (MIC), Strain No. 5
Procedure: as §1, §2

K. pneumoniae SR01358 = assay: MIC by microbroth dilution (CLSI), strain No. 2; details: Klebsiella pneumoniae; K. pneumoniae SR01358, KPC-2; KPC-producing strain; cation-adjusted Mueller-Hinton broth; read-out: minimum inhibitory concentration (MIC), Strain No. 2
Procedure: as §1, §2

Row | Compound | MIC (E. coli SR09616) [µg/mL] | MIC (K. pneumoniae SR01453) [µg/mL] | MIC (E. coli SR09613) [µg/mL] | MIC (K. pneumoniae NCTC13443) [µg/mL] | MIC (E. cloacae ATCC13047) [µg/mL] | MIC (E. cloacae SR36276) [µg/mL] | minimum inhibitory concentration (MIC), Strain No. 7 (E. coli SR09616) [µg/mL] | minimum inhibitory concentration (MIC), Strain No. 3 (K. pneumoniae SR01453) [µg/mL] | minimum inhibitory concentration (MIC), Strain No. 6 (E. coli SR09613) [µg/mL] | minimum inhibitory concentration (MIC), Strain No. 4 (K. pneumoniae NCTC13443) [µg/mL] | minimum inhibitory concentration (MIC), Strain No. 1 (E. cloacae ATCC13047) [µg/mL] | minimum inhibitory concentration (MIC), Strain No. 5 (E. cloacae SR36276) [µg/mL] | MIC (K. pneumoniae SR01358) [µg/mL]
1 | Nc1nc(/C(=N/OC(CO)CO)C(=O)N[C@@H]2C(=O)N3[C@@H]2[S@@+]([O-])C[C@@H]2CC(=O)O[C@@]23C(=O)O)cs1 [Compound I-052] | 0.063 (≈ 0.122 µM) | ≤ 0.031 | ≤ 0.031 | 0.5 (≈ 0.966 µM) | 0.063 (≈ 0.122 µM) | 0.125 (≈ 0.242 µM) |  |  |  |  |  |  | 
2 | Nc1nc(/C(=N/OCc2cccnc2)C(=O)N[C@@H]2C(=O)N3[C@@H]2[S@@+]([O-])C[C@@H]2CC(=O)O[C@@]23C(=O)O)cs1 [Compound I-042] | 4 (≈ 7.48 µM) | 2 (≈ 3.74 µM) | 4 (≈ 7.48 µM) |  |  |  |  |  |  |  |  |  | 
3 | Nc1nc(/C(=N/OC[C@@H](O)CO)C(=O)N[C@@H]2C(=O)N3[C@@H]2[S@@+]([O-])C[C@@H]2CC(=O)O[C@@]23C(=O)O)cs1 [Compound I-044] | 1 (≈ 1.93 µM) | 1 (≈ 1.93 µM) | 0.25 (≈ 0.483 µM) | 2 (≈ 3.86 µM) | 0.5 (≈ 0.966 µM) | 1 (≈ 1.93 µM) |  |  |  |  |  |  | 
4 | C[n+]1ccc(CO/N=C(\C(=O)N[C@@H]2C(=O)N3[C@@H]2[S@@+]([O-])C[C@@H]2CC(=O)O[C@@]23C(=O)[O-])c2csc(N)n2)cc1 [Compound I-041] | 2 (≈ 3.65 µM) | 0.5 (≈ 0.911 µM) | 0.5 (≈ 0.911 µM) |  | 1 (≈ 1.82 µM) |  |  |  |  |  |  |  | 
5 | NC(=O)NCCO/N=C(\C(=O)N[C@@H]1C(=O)N2[C@@H]1[S@@+]([O-])C[C@@H]1CC(=O)O[C@@]12C(=O)O)c1csc(N)n1 [Compound I-056] | 2 (≈ 3.78 µM) | 0.5 (≈ 0.944 µM) | 0.5 (≈ 0.944 µM) |  | 0.5 (≈ 0.944 µM) | 2 (≈ 3.78 µM) |  |  |  |  |  |  | 
6 | NCCO/N=C(\C(=O)N[C@@H]1C(=O)N2[C@@H]1[S@@+]([O-])C[C@@H]1CC(=O)O[C@@]12C(=O)O)c1csc(N)n1 [Compound I-072] | 4 (≈ 8.22 µM) |  | 4 (≈ 8.22 µM) |  |  |  |  |  |  |  |  |  | 
7 | Nc1nc(/C(=N/OC[C@H](O)CO)C(=O)N[C@@H]2C(=O)N3[C@@H]2[S@@+]([O-])C[C@@H]2CC(=O)O[C@@]23C(=O)O)cs1 [Compound I-050] | 4 (≈ 7.73 µM) | 0.5 (≈ 0.966 µM) | 0.5 (≈ 0.966 µM) | 4 (≈ 7.73 µM) | 0.5 (≈ 0.966 µM) | 1 (≈ 1.93 µM) |  |  |  |  |  |  | 
8 | Nc1nc(/C(=N/OCC(=O)NO)C(=O)N[C@@H]2C(=O)N3[C@@H]2[S+](O)C[C@@H]2CC(=O)O[C@@]23C(=O)O)cs1 (stereo partly shown) [Compound I-049] |  |  |  |  |  |  | 0.5 | 0.063 | 0.063 | 2 | 0.125 | 0.5 | 
9 | N#CCO/N=C(\C(=O)N[C@@H]1C(=O)N2[C@@H]1[S@@+]([O-])C[C@@H]1CC(=O)O[C@@]12C(=O)O)c1csc(N)n1 [Compound I-039] | 1 (≈ 2.07 µM) | 0.125 (≈ 0.259 µM) | 0.25 (≈ 0.518 µM) | 4 (≈ 8.29 µM) | 0.5 (≈ 1.04 µM) | 2 (≈ 4.15 µM) |  |  |  |  |  |  | 
10 | CONC(=O)CO/N=C(\C(=O)N[C@@H]1C(=O)N2[C@@H]1[S+](O)C[C@@H]1CC(=O)O[C@@]12C(=O)O)c1csc(N)n1 (stereo partly shown) [Compound I-048] | 0.5 | 0.125 | 0.125 | 4 | 0.25 | 1 |  |  |  |  |  |  | 
11 | Nc1nc(/C(=N/OC2(C(=O)[O-])CC2)C(=O)N[C@@H]2C(=O)N3[C@@H]2[S@@+]([O-])C[C@@H]2CC(=O)O[C@@]23C(=O)[O-])cs1.[Na+].[Na+] [Compound I-015] |  | 0.125 |  | 1 | 0.125 | 0.125 |  |  |  |  |  |  | 0.5
12 | Nc1nc(/C(=N/OCS(=O)(=O)O)C(=O)N[C@@H]2C(=O)N3[C@@H]2[S@@+](O)C[C@@H]2CC(=O)O[C@@]23C(=O)O)cs1 [Compound I-047] |  |  |  |  |  |  | 0.25 | 0.25 | 0.063 | 2 | 0.25 | 0.25 | 
